Data on 13 compounds can be found in patent US20140038959A1, “METHODS OF TREATING TUMORS” (Genentech, Inc., priority 2011, published 2014).

In assay [1] the test system is EBC-1 cells. Nature of the assay: cell killing by pharmacological PAK or Rac1 inhibitors combined with IAP inhibition. Format: cell-based, human. The conditions noted are these: pharmacological inhibitors of PAK or Rac1 catalytic activity; FIG. 7A. The text has this:
The prosurvival activity of IAP proteins is antagonized by the second mitochondrial activator of caspases (SMAC) (C. Du et al., Cell 2000 102:33-42; A. M. Verhagen, et al. Cell 2000 102:43-53) and a number of antagonists have been described that mimic SMAC amino-terminal peptides to disrupt the association of IAP with SMAC and activated caspase-9 (K. Zobel et al., ACS Chem. Biol. 2006 1:525-533; E. Varfolomeev et al., Cell 2007 131:669-681). In particular, BV6 (C. Ndubaku et al., Future Med. Chem. 2009 1(8):1509) represents one such class of small molecule antagonist that binds to baculovirus TAP repeat (BIR) domains and promotes rapid auto-ubiquitination and proteasomal degradation of c-TAP 1 and cIAP-2 (Zobel supra). Consistent with the small molecule screening data, strong combinatorial activity was confirmed for dual inhibition of PAK1 and IAP in EBC-1 cells (FIG. 5A). […] To further explore this apparent synergy we investigated possible molecular mechanisms of PAK1 and IAP inhibition on the induction of apoptosis. […] Lastly, additional NSCLC cell lines, including those that are only minimally responsive to the activity of either single agent, were examined for anti-tumor efficacy resulting from combined inhibition of PAK1 and IAP.

Assay [2] concerns EBC-1 cells. Nature of the assay: PF-3758309 with BV6, in vitro combination efficacy, 4-day CellTiterGlo viability assay (Calcusyn). Format: cell-based, human. The conditions noted are these: Chou and Talalay method, CI ≦0.3 = strong synergy. The protocol:
FIG. 10—Combination of ATP-competitive pan-PAK inhibitor PF-3758309 (B. W. Murray et al. Proc. Nat. Acad. Sci. USA 2010 107(20):9446-9471 and IAP small molecule antagonist results in apoptosis of squamous NSCLC cells. (A) Catalytic inhibition of PAK1 via PF-3758309 treatment was tested with BV6 for in vitro combination efficacy in EBC-1 cells using a 4-day CellTiterGlo viability assay. Calcusyn, a program utilizing the Chou and Talalay (Chou T C, Talalay P. Quantitative analysis of dose-effect relationships: the combined effects of multiple drugs or enzyme inhibitors. Adv. Enzyme Regul. 1984; 22:27-55) method of calculating synergy, was used to calculate the combination index and, thus, determine the level of synergy. Strong synergy, as indicated by combination index (CI) values ≦0.3, was observed (CI=0.113).
A determination of a synergistic interaction between a PAK1 inhibitor and a second anti-hyperproliferative agent may be based on the results obtained from the assays described herein. The combinations provided by this invention have been evaluated in several assay systems, and the data can be analyzed utilizing a standard program for quantifying synergism, additivism, and antagonism among anticancer agents. The program preferably utilized is that described by Chou and Talalay, in “New Avenues in Developmental Cancer Chemotherapy,” Academic Press, 1987, Chapter 2. […]

Assay [3] has as its system Cells transfected with XIAP-specific siRNA. Description: Cell Titer Glo viability after XIAP siRNA and PAK SMI. It is filed as cell-based. The conditions noted are these: XIAP siRNA 48 h, then PAK SMI 72 h; p<0.0001. The method, then:
Cells were transfected with non-targeting control (NTC) or XIAP-specific siRNA oligonucleotides for 48 h prior to treatment with DMSO or PAK SMI as indicated for an additional 72 h. Cell viability was determined via Cell Titer Glo assay and results represent mean±standard deviation from three experiments. (B) Combined antagonism of XIAP and PAK1 promotes efficient cleavage of PARP and caspase-3. XIAP siRNA oligonucleotides were transfected for 72 h prior to treatment with DMSO or […] PAK SMI.

Assay [4] deals with EBC1-shPAK1 cells. Nature of the assay: pharmarray viability screen, 200 compound library, with or without PAK1 knockdown (CellTiter-Glo). The following applies: for pEC50: Homo sapiens. It is filed as cell-based, human. (ATP-based viability assays read luminescence as a measure of living cells.)
Assay [5] concerns SKMES-1, Calu-6, Cal-120 cells. Description: CellTiter-Glo viability after PAK1 and PAK2 siRNA plus MEK and PI3K inhibitors. It is filed as cell-based, human. The following applies: with PAK1 and PAK2 siRNA, 3 days. The protocol:
FIG. 11—Combinatorial effect of PAK1, PAK2, MEK and PI3K inhibition on tumor cell viability. CellTiter-Glo® (CTG) assays of cellular viability were performed following PAK1 and PAK2 siRNA transfection and compound treatment for 3 days, as indicated.
Taken together, these studies provide strong preclinical support that breast and NSCLC may provide several opportunities for rational combination therapies with PAK1 inhibitors. In one embodiment of the present invention there is provided a method of treating tumors comprising contacting the tumor with a PAK 1 inhibitor and a second anti-hyperproliferative compound.

Assay [6] relates to NCI-H441. Nature of the assay: Cell Titer Glo viability after PAK1 siRNA and BV6. The following applies: transient PAK1 siRNA followed by 5 μM BV6. It is filed as cell-based, human. The protocol:
(§1) FIG. 7—(A) Combinatorial accumulation of cleaved PARP and caspase-3 by PAK1 and IAP antagonism. Cells were incubated with Dox and […] for indicated time points, lysed and then used for Western blot analysis (B) Dual PAK1 and IAP inhibition results in a synergistic decrease in viability of SK-MES-1 (squamous subtype) and NCI-H441 (adenocarcinoma subtype) NSCLC cells. Cellular ATP consumption was determined via Cell Titer Glo assay following transient siRNA-mediated inhibition of PAK1 and 5 μM BV6 treatment as indicated.
(§2) The prosurvival activity of IAP proteins is antagonized by the second mitochondrial activator of caspases (SMAC) (C. Du et al., Cell 2000 102:33-42; A. M. Verhagen, et al. Cell 2000 102:43-53) and a number of antagonists have been described that mimic SMAC amino-terminal peptides to disrupt the association of IAP with SMAC and activated caspase-9 (K. Zobel et al., ACS Chem. Biol. 2006 1:525-533; E. Varfolomeev et al., Cell 2007 131:669-681). In particular, BV6 (C. Ndubaku et al., Future Med. Chem. 2009 1(8):1509) represents one such class of small molecule antagonist that binds to baculovirus TAP repeat (BIR) domains and promotes rapid auto-ubiquitination and proteasomal degradation of c-TAP 1 and cIAP-2 (Zobel supra). […]

The test system of assay [7] is SK-MES-1. Nature of the assay: Cell Titer Glo viability after PAK1 siRNA and BV6. It is filed as cell-based, human. The following applies: transient PAK1 siRNA followed by 5 μM BV6. The method, then: as §1, §2
For assay [8], the system named is MDA-MB-175 cells. Description: Annexin V/PI fluorescence-activated cell sorting after IPA-3 for 48 h. It is filed as cell-based, human. The source says: FIG. 1-Analysis of PAK1 genomic amplification and functional role in human breast tumors. (A) Genomic Identification of Significant Targets in Cancer (GISTIC) analysis of 11q13 copy number gains. Points are proportionately spaced and arranged in genome order. Vertical line represents chromosome location of the PAK1 gene. […] (B) PAK1 DNA copy and mRNA expression dot plot depicts the relationship of DNA copy number to the 226507 at Affymetrix MAS 5.0 signal for 51 tumor samples. The Pearson correlation statistic (0.75) is shown for the plot. The solid line represents the best-fit line through these points. (C) Increasing proportion of Annexin V-positive cells following knockdown of PAK1 expression is shown for 3 breast cancer cell lines with focal PAK1 genomic amplification, MDA-MB-175, HCC1500 and MDA-MB-134 IV. Cells were harvested 3-5 days following transient transfection of pooled siRNA oligonucleotides. (D) Fluorescence-activated cell sorting analysis for Annexin V/PI. MDA-MB-175 cells were cultured in the presence or absence of IPA-3 for 48 h. Annexin V/PI staining was then done to assess apoptosis/necrosis. […]
To ascertain the role of PAK1 in cell survival, the quantity of cytoplasmic histone-associated DNA fragments was quantified using the Cell Death Detection ELISA Plus kit from Roche (Mannheim, Germany). […]

Setting [9] is: EBC-1-shPAK1 cells without PAK1 knockdown, 72 hr compound treatment, read-out: Single agent EC50.
Setting [10] is: PAK1 knockdown shRNA (300 ng/mL doxycycline 3 days prior) and compound, 72 hr, read-out: Combo PAKi EC50.
[11] abbreviates: single agent vs combination with PAK1 knockdown.
Setting [12] is: 72 h, read-out: Single agent EC50.

pEC50: −log10 of the molar value. Read-outs that look alike come from different tables or passages of the source. Numbered stars: 1 amine (or outer) side, 2 acyl side, 3 side chain; on linkers, the order of the positions; unused ones are H or OH. Bridge positions count the residues as written; N and C are the ends. Square brackets hold non-standard residues; d marks the D form. Peptide text beside a SMILES is read from it. I, II: the chains in the order shown. Hexamethylenediamine = C(CCCN[*:2])CCN[*:1]; Dip = N[C@H](C(=O)O)C(c1ccccc1)c1ccccc1; Chg = N[C@H](C(=O)O)C1CCCCC1; NMeA = CN[C@@H](C)C(=O)O A value given as a limit tells only on which side of the number the result lay.

With `Cc1nc(Nc2n[nH]c3c2CN(C(=O)N[C@H](CN(C)C)c2ccccc2)C3(C)C)c2sccc2n1` [PF-3758309], the “cell killing combined with IAP inhibition” value in assay [1] is “enhanced cell killing”. The “combination index (CI)” value in assay [2] was 0.113. Also, in assay [3], the “proapoptotic activity with XIAP down-regulation” value is reported as “potentiates the proapoptotic activity”.
On to `Cc1nc(Nc2ncc(C(=O)Nc3c(C)cccc3Cl)s2)cc(N2CCN(CCO)CC2)n1` [dasatinib], for which the figures for the pEC50 in assay [4] (setting [9]) and in assay [4] (setting [10]) were 5.08 and 5.82, respectively. Further, in assay [4] (setting [11]), the “Fold change in EC50” value was determined as 5.43.
Take `CS(=O)(=O)N1CCN(Cc2cc3nc(-c4cccc5[nH]ncc45)nc(N4CCOCC4)c3s2)CC1` [GDC-0941]: the “combinatorial efficacy, reduced cellular viability” value in assay [5] is listed as “Combinatorial efficacy”.
On to `CCN(CC)CCCC(C)Nc1nc(C)cc(Nc2ccc3nc(C)cc(N)c3c2)n1` (stereo not drawn) [NSC23766], for which the “cell killing combined with IAP inhibition” value in assay [1] was “enhanced cell killing”.
Take `N#CC(=C(/N)Sc1ccccc1N)/C(C#N)=C(\N)Sc1ccccc1N` [U0126]: in assay [4], the “Fold change in EC50” value is 8.45. Besides, the negative logarithm of the EC50 (pEC50) in assay [4] (setting [12]) was 4.71; in assay [4] (read-out: Combo PAKi EC50), 5.64.
For the compound `CN(C)c1nc(N(C)C)nc(N(C)C)n1` [altretamine], the pEC50 in assay [4] (setting [9]) is ≤ 4.70; in assay [4] (setting [10]), 5.40. Moreover, the “Fold change in EC50” value in assay [4] (setting [11]) is 5.07.
With `O=C1[O][Pt]2([NH][C@@H]3CCCC[C@H]3[NH]2)[O]C1=O` [oxaliplatin], in assay [4], the “Fold change in EC50” value was 4.23.
Take `CN[C@@H](C)C(=O)N[C@H](C(=O)N1CCC[C@H]1C(=O)N[C@H](C(=O)NCCCCCCNC(=O)[C@@H](NC(=O)[C@@H]1CCCN1C(=O)[C@@H](NC(=O)[C@H](C)NC)C1CCCCC1)C(c1ccccc1)c1ccccc1)C(c1ccccc1)c1ccccc1)C1CCCCC1` [BV6] (I: H-[NMeA][Chg]P[Dip] / II: H-[NMeA][Chg]P[Dip]; linker I:C-II:C via Hexamethylenediamine): the cell viability entry in assay [6] and in assay [7] was “significant reduction” throughout. The “Fold change in EC50” value in assay [4] (setting [11]) was 57.54.
`Oc1ccc2ccccc2c1SSc1c(O)ccc2ccccc12` [IPA-3]: the “induction of apoptosis, fold increase (Annexin-V/propidium iodide)” value in assay [8] is given as 7 fold. Also, the “cell killing combined with IAP inhibition” value in assay [1] was “enhanced cell killing”.
Regarding `CS(=O)(=O)CCNCc1ccc(-c2ccc3ncnc(Nc4ccc(OCc5cccc(F)c5)c(Cl)c4)c3c2)o1` [lapatinib], the pEC50 in assay [4] (setting [9]) was 5.20; in assay [4] (setting [10]), 6.07. Also, in assay [4] (setting [11]), the “Fold change in EC50” value amounted to 7.34.
Taken in the same sequence, the figures for `COc1cc2c(Nc3ccc(Br)cc3F)ncnc2cc1OCC1CCN(C)CC1` [ZD6474] were ≤ 4.70, 5.16 and 2.91.
In the case of `C#Cc1cccc(Nc2ncnc3cc(OCCOC)c(OCCOC)cc23)c1` [erlotinib], the “Fold change in EC50” value in assay [4] was 15.02. Also, the pEC50 was ≤ 4.70 in assay [4] (setting [12]) and 5.81 in assay [4] (read-out: Combo PAKi EC50).
Regarding `O=c1[nH]c2ccccc2n1C1CCN(Cc2ccc(-c3nc4cc5[nH]cnc5cc4nc3-c3ccccc3)cc2)CC1` [Akt inhibitor VIII], in assay [4] (setting [11]), the “Fold change in EC50” value came out at 1.58.

One may read the pEC50 as the EC50 on a negative log10 scale, so that one unit is a factor of ten.
